In PubChem BioAssay (NCI):
“And” between values parts separate entries of the source, which are not always exact repeats. Equal entries are not always repeated.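 48-hour exposure; five concentrations; linearly interpolated endpoints. At the GI50, growth is halved. At the TGI there is no net growth.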

Assays:
Test in all cases: NCI anticancer screen, dose series, 48 h
M14 melanoma = test system: M14 melanoma
OVCAR-8 ovarian = test system: OVCAR-8 ovarian
UO-31 renal = test system: UO-31 renal
SF-268 CNS = test system: SF-268 CNS
MALME-3M melanoma = test system: MALME-3M melanoma
CAKI-1 renal = test system: CAKI-1 renal
OVCAR-3 ovarian = test system: OVCAR-3 ovarian
K-562 leukemia = test system: K-562 leukemia
NCI/ADR-RES ovarian = test system: NCI/ADR-RES ovarian
DU-145 prostate = test system: DU-145 prostate

With `Nc1nc(N)c(-c2ccccc2)c(C(=O)Nc2ccccc2)n1` the TGI (M14 melanoma) was > 100 µM, the TGI (OVCAR-8 ovarian) was > 100 µM and the TGI (UO-31 renal) was > 100 µM. The TGI (SF-268 CNS) was > 100 µM, the TGI (MALME-3M melanoma) was > 100 µM and the TGI (CAKI-1 renal) was > 100 µM. For the same compound, the TGI (OVCAR-3 ovarian) was > 100 µM and the TGI (K-562 leukemia) was > 100 µM.

In the case of `CC1(Br)CC2OC3(Br)C=CC(C)(O)C2(CC1=O)C3(C)C` (stereo not drawn), the TGI (M14 melanoma) is reported as > 100 µM, the TGI (OVCAR-8 ovarian) is reported as > 100 µM and the TGI (UO-31 renal) is reported as > 100 µM. The TGI (SF-268 CNS) was > 100 µM, the TGI (MALME-3M melanoma) was > 100 µM and the TGI (CAKI-1 renal) was > 100 µM. The TGI (OVCAR-3 ovarian) was > 100 µM and the TGI (K-562 leukemia) was > 29.8 µM.

In the case of `CCOC(=O)C(N=C(c1ccccc1)c1ccccc1)N(C(=O)OC(C)(C)C)C(=O)OC(C)(C)C` (stereo not drawn), the TGI (OVCAR-8 ovarian) is reported as > 100 µM, the TGI (UO-31 renal) is reported as > 100 µM and the TGI (SF-268 CNS) is reported as > 100 µM. For the same compound, the TGI (MALME-3M melanoma) was > 100 µM, the TGI (CAKI-1 renal) was > 100 µM and the TGI (OVCAR-3 ovarian) was > 100 µM. The TGI (K-562 leukemia) was > 100 µM.

`COc1ccc(Cc2c(=O)[nH]nc3ccccc23)cc1` was tested, and the TGI (M14 melanoma) was > 100 µM, the TGI (OVCAR-8 ovarian) was > 100 µM and the TGI (UO-31 renal) was > 100 µM. The TGI (SF-268 CNS) was > 100 µM, the TGI (MALME-3M melanoma) was > 100 µM and the TGI (CAKI-1 renal) was > 100 µM. The TGI (OVCAR-3 ovarian) was > 100 µM and the TGI (K-562 leukemia) was > 100 µM.

For `Cc1cc(C)n(-c2ccnc3cc(Cl)ccc23)n1`, the TGI (M14 melanoma) was > 100 µM, the TGI (OVCAR-8 ovarian) was > 100 µM and the TGI (UO-31 renal) was > 100 µM. For the same compound, the TGI (SF-268 CNS) was > 100 µM, the TGI (MALME-3M melanoma) was > 100 µM and the TGI (OVCAR-3 ovarian) was > 100 µM. The TGI (K-562 leukemia) was > 100 µM.

With `CCCCNC(=O)C1C(=O)N(CCCC)C(=O)/C1=N\N` (stereo not drawn) the TGI (M14 melanoma) was > 100 µM, the TGI (OVCAR-8 ovarian) was > 100 µM and the TGI (UO-31 renal) was > 100 µM. The TGI (SF-268 CNS) was > 100 µM, the TGI (MALME-3M melanoma) was > 100 µM and the TGI (CAKI-1 renal) was > 100 µM. For the same compound, the TGI (OVCAR-3 ovarian) was > 100 µM and the TGI (K-562 leukemia) was > 100 µM.

`COc1cc2c(c(OC)c1OC)-c1ccc(OC)c(=O)cc1[C@@H](NC(C)=O)CC2` was tested, and the GI50 (NCI/ADR-RES ovarian) was 0.488 µM, the TGI (M14 melanoma) was > 100 µM and 32 µM and the GI50 (OVCAR-8 ovarian) was 1.35 µM. For the same compound, the TGI (OVCAR-8 ovarian) was > 100 µM, the GI50 (UO-31 renal) was 4.74 µM and 1.09 µM and 1.33 µM and the TGI (UO-31 renal) was > 625 µM. For the same compound, the GI50 (MALME-3M melanoma) was 4.33 µM and 1.35 µM and the TGI (DU-145 prostate) was 0.0538 µM.

With `O=[N+]([O-])c1cc([N+](=O)[O-])c(/C=C/c2ccc(Cl)c(Cl)c2)cc1/C=C/c1ccc(Cl)c(Cl)c1` the TGI (M14 melanoma) was 52 µM, the TGI (OVCAR-8 ovarian) was > 100 µM and the TGI (UO-31 renal) was 36.1 µM. For the same compound, the TGI (SF-268 CNS) was 75.8 µM, the TGI (MALME-3M melanoma) was 56.3 µM and the TGI (CAKI-1 renal) was > 100 µM. The TGI (OVCAR-3 ovarian) was 59.8 µM and the TGI (K-562 leukemia) was 78.8 µM.

For `CC[C@@]1(O)C(=O)OCc2c1cc1n(c2=O)Cc2cc3cccc([N+](=O)[O-])c3nc2-1`, the GI50 (M14 melanoma) was 1.05 µM, the TGI (M14 melanoma) was 12.5 µM and the GI50 (OVCAR-8 ovarian) was 0.857 µM. The TGI (OVCAR-8 ovarian) was > 100 µM, the GI50 (UO-31 renal) was 1.17 µM and the TGI (UO-31 renal) was 6.91 µM. For the same compound, the GI50 (SF-268 CNS) was 0.794 µM, the TGI (SF-268 CNS) was > 100 µM and the GI50 (MALME-3M melanoma) was 4.35 µM. The TGI (MALME-3M melanoma) was > 100 µM, the GI50 (OVCAR-3 ovarian) was 4.92 µM and the TGI (OVCAR-3 ovarian) was 43.5 µM. For the same compound, the GI50 (K-562 leukemia) was 3.55 µM and the TGI (K-562 leukemia) was > 100 µM.

For `O=C1[C@@H]2C(c3ccccc3[N+](=O)[O-])=[N+](c3ccccc3)O[C@@H]2C(=O)N1c1ccc(Cc2ccc(N3C(=O)[C@H]4C(c5ccccc5[N+](=O)[O-])=[N+](c5ccccc5)O[C@H]4C3=O)cc2)cc1`, the TGI (M14 melanoma) was 49.9 µM, the TGI (OVCAR-8 ovarian) was > 100 µM and the TGI (UO-31 renal) was > 100 µM. For the same compound, the TGI (SF-268 CNS) was > 100 µM, the TGI (MALME-3M melanoma) was 81.6 µM and the TGI (CAKI-1 renal) was > 100 µM. The TGI (OVCAR-3 ovarian) was > 100 µM and the TGI (K-562 leukemia) was > 100 µM.

In the case of `CCOC(=O)NC/C=C/COC1CCCCO1` (stereo not drawn), the TGI (M14 melanoma) is reported as > 100 µM, the TGI (OVCAR-8 ovarian) is reported as > 100 µM and the TGI (UO-31 renal) is reported as > 100 µM. For the same compound, the TGI (SF-268 CNS) was > 100 µM, the TGI (MALME-3M melanoma) was > 100 µM and the TGI (CAKI-1 renal) was > 100 µM. For the same compound, the TGI (K-562 leukemia) was > 100 µM.

With `N#CCCCCCOCCOCCOCCOCCOCCCCCC#N` the TGI (M14 melanoma) was > 100 µM, the TGI (OVCAR-8 ovarian) was > 100 µM and the TGI (UO-31 renal) was > 100 µM. For the same compound, the TGI (SF-268 CNS) was > 100 µM, the TGI (MALME-3M melanoma) was > 100 µM and the TGI (CAKI-1 renal) was > 100 µM. For the same compound, the TGI (OVCAR-3 ovarian) was > 100 µM and the TGI (K-562 leukemia) was > 100 µM.

With `Cc1nn2c(nc1=O)sc1ccc3ccccc3c12` the TGI (M14 melanoma) was > 100 µM, the TGI (OVCAR-8 ovarian) was > 100 µM and the TGI (UO-31 renal) was > 100 µM. For the same compound, the TGI (SF-268 CNS) was > 100 µM, the TGI (MALME-3M melanoma) was > 100 µM and the TGI (CAKI-1 renal) was > 100 µM. The TGI (OVCAR-3 ovarian) was > 100 µM and the TGI (K-562 leukemia) was > 100 µM.

For `O=c1[nH]c(=O)c2cc3cc(C4CC(O)C(CO)O4)ccc3cc2[nH]1` (stereo not drawn), the GI50 (NCI/ADR-RES ovarian) was > 100 µM, the TGI (NCI/ADR-RES ovarian) was > 100 µM and the GI50 (M14 melanoma) was > 100 µM. For the same compound, the TGI (M14 melanoma) was > 100 µM, the GI50 (OVCAR-8 ovarian) was > 100 µM and the TGI (OVCAR-8 ovarian) was > 100 µM. For the same compound, the GI50 (UO-31 renal) was 8.48 µM, the TGI (UO-31 renal) was 67 µM and the GI50 (SF-268 CNS) was > 100 µM. The TGI (SF-268 CNS) was > 100 µM, the GI50 (DU-145 prostate) was > 100 µM and the TGI (DU-145 prostate) was > 100 µM. The GI50 (CAKI-1 renal) was > 100 µM, the TGI (CAKI-1 renal) was > 100 µM and the GI50 (OVCAR-3 ovarian) was > 100 µM. The TGI (OVCAR-3 ovarian) was > 100 µM, the GI50 (K-562 leukemia) was > 100 µM and the TGI (K-562 leukemia) was > 100 µM.

In the case of `CCCNCC(=O)O[C@]1(CC)C(=O)OCc2c1cc1n(c2=O)Cc2cc3ccccc3nc2-1`, the TGI (M14 melanoma) is reported as 1.82 µM, the TGI (OVCAR-8 ovarian) is reported as 8.33 µM and the TGI (SF-268 CNS) is reported as 2.46 µM. The TGI (MALME-3M melanoma) was 4.1 µM, the TGI (OVCAR-3 ovarian) was 2.63 µM and the TGI (K-562 leukemia) was > 100 µM.

With `COC(=O)C1=CO[C@@H](OC2OC(CO)C(O)C(O)C2O)[C@H]2[C@@H](C)[C@@H](O)[C@@H](O)[C@@H]12` (stereo partly drawn) the TGI (NCI/ADR-RES ovarian) was > 100 µM, the TGI (M14 melanoma) was > 100 µM and the TGI (OVCAR-8 ovarian) was > 100 µM. The TGI (UO-31 renal) was > 100 µM, the TGI (SF-268 CNS) was > 100 µM and the TGI (MALME-3M melanoma) was > 100 µM. For the same compound, the TGI (DU-145 prostate) was > 100 µM, the TGI (CAKI-1 renal) was > 100 µM and the TGI (OVCAR-3 ovarian) was > 100 µM.

`N#C[Se]CCN1C(=O)C2C(C1=O)[C@H]1C=C[C@@H]2S1` (stereo partly drawn) showed a GI50 (NCI/ADR-RES ovarian) of 2.4 µM, a TGI (NCI/ADR-RES ovarian) of 7.18 µM and a GI50 (M14 melanoma) of 1.54 µM. It also gave a TGI (M14 melanoma) of 3.62 µM, a GI50 (OVCAR-8 ovarian) of 2.11 µM and a TGI (OVCAR-8 ovarian) of 5.26 µM. For the same compound, the GI50 (UO-31 renal) was 1.36 µM, the TGI (UO-31 renal) was 2.9 µM and the GI50 (SF-268 CNS) was 1.95 µM. It also gave a TGI (SF-268 CNS) of 3.86 µM, a GI50 (MALME-3M melanoma) of 1.53 µM and a TGI (MALME-3M melanoma) of 3.65 µM. The GI50 (CAKI-1 renal) was 1.9 µM, the TGI (CAKI-1 renal) was 3.39 µM and the GI50 (OVCAR-3 ovarian) was 1.94 µM. For the same compound, the TGI (OVCAR-3 ovarian) was 3.85 µM, the GI50 (K-562 leukemia) was 3.24 µM and the TGI (K-562 leukemia) was 12 µM.
